Source: patent US10906873B2, “Substituted cyclic amides as herbicides” (FMC Corporation, priority 2015, dated 2021)

Key:
Format in all cases: in vivo
[1] = tested on: pigweed (Amaranthus retroflexus); assay: Test A postemergence, pigweed; conditions: 0 to 100 scale
In short: (§1)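 Pre: seeds planted in loam/sand, directed soil spray. Post: 2–10 cm plants, 1–2 leaf. Formulation: non-phytotoxic solvent + surfactant. Greenhouse ~10 d; visual injury vs untreated, 0 = no effect, 100 = complete control.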

[2] = tested on: foxtail, giant (giant foxtail, Setaria faberii); assay: Test A postemergence, foxtail, giant; conditions: 0 to 100 scale
In short: as §1

[3] = tested on: blackgrass (Alopecurus myosuroides); assay: Test A postemergence, blackgrass; conditions: 0 to 100 scale
In short: as §1

kochia (Kochia scoparia) [4] = assay: Test A postemergence, kochia; conditions: 0 to 100 scale
In short: as §1

[5] = tested on: barnyardgrass (Echinochloa crus-galli); assay: Test A preemergence, barnyardgrass; conditions: 0 to 100 scale
In short: as §1

[6] = tested on: ragweed (common ragweed, Ambrosia elatior); assay: Test A postemergence, ragweed; conditions: 0 to 100 scale
In short: as §1

[7] = tested on: sedge, umbrella (small-flower umbrella sedge, Cyperus difformis); assay: Test B flooded paddy test, sedge, umbrella; conditions: Flood, scale of 0 to 100 where 0 is no effect and 100 is complete control, 13 to 15 d
In short: (§2)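 Ratings use a 0-100 visual scale, where 100 is complete control, and compare treated plants with controls after 13 to 15 d of greenhouse growth. Compound went straight into paddy water kept 3 cm over the soil surface, applied to seedlings at the 2-leaf stage.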

[8] = tested on: ryegrass, It. (Italian ryegrass, Lolium multiflorum); assay: Test A preemergence, ryegrass, It.; conditions: 0 to 100 scale
In short: as §1

[9] = tested on: galium (catchweed bedstraw, Galium aparine); assay: Test A postemergence, galium; conditions: 0 to 100 scale
In short: as §1

corn (Zea mays) = assay: Test A postemergence, corn; conditions: 0 to 100 scale
In short: as §1

[10] = tested on: pigweed (Amaranthus retroflexus); assay: Test A preemergence, pigweed; conditions: 0 to 100 scale
In short: as §1

[11] = tested on: ryegrass, It. (Italian ryegrass, Lolium multiflorum); assay: Test A postemergence, ryegrass, It.; conditions: 0 to 100 scale
In short: as §1

[12] = tested on: barnyardgrass (Echinochloa crus-galli); assay: Test A postemergence, barnyardgrass; conditions: 0 to 100 scale
In short: as §1

[13] = tested on: foxtail, giant (giant foxtail, Setaria faberii); assay: Test A preemergence, foxtail, giant; conditions: 0 to 100 scale
In short: as §1

[14] = tested on: ducksalad (Heteranthera limosa); assay: Test B flooded paddy test, ducksalad; conditions: Flood, scale of 0 to 100 where 0 is no effect and 100 is complete control, 13 to 15 d
In short: as §2

[15] = tested on: barnyardgrass (Echinochloa crus-galli); assay: Test B flooded paddy test, barnyardgrass; conditions: Flood, scale of 0 to 100 where 0 is no effect and 100 is complete control, 13 to 15 d
In short: as §2

kochia (Kochia scoparia) [16] = assay: Test A preemergence, kochia; conditions: 0 to 100 scale
In short: as §1

[17] = tested on: ragweed (common ragweed, Ambrosia elatior); assay: Test A preemergence, ragweed; conditions: 0 to 100 scale
In short: as §1

[18] = tested on: wheat (Triticum aestivum); assay: Test A postemergence, wheat; conditions: 0 to 100 scale
In short: as §1

rice (Oryza sativa) = assay: Test B flooded paddy test, rice; conditions: Flood, scale of 0 to 100 where 0 is no effect and 100 is complete control, 13 to 15 d
In short: as §2

Row | SMILES | Plant response rating, Pigweed ([1]; 125 g ai/ha) | Plant response rating, Pigweed ([1]; 500 g ai/ha) | Plant response rating, Foxtail, Giant ([2]; 125 g ai/ha) | Plant response rating, Foxtail, Giant ([2]; 500 g ai/ha) | Plant response rating, Blackgrass ([3]; 125 g ai/ha) | Plant response rating, Blackgrass ([3]; 500 g ai/ha) | Plant response rating, Kochia (kochia (Kochia scoparia) [4]; 125 g ai/ha) | Plant response rating, Kochia (kochia (Kochia scoparia) [4]; 500 g ai/ha) | Plant response rating, Barnyardgrass ([5]; 125 g ai/ha) | Plant response rating, Barnyardgrass ([5]; 500 g ai/ha) | Plant response rating, Ragweed ([6]; 125 g ai/ha) | Plant response rating, Ragweed ([6]; 500 g ai/ha) | Plant response rating, Ryegrass, It. ([8]; 125 g ai/ha) | Plant response rating, Ryegrass, It. ([8]; 500 g ai/ha) | Plant response rating, Galium ([9]; 125 g ai/ha) | Plant response rating, Galium ([9]; 500 g ai/ha) | Plant response rating, Corn (corn (Zea mays); 125 g ai/ha) | Plant response rating, Corn (corn (Zea mays); 500 g ai/ha) | Plant response rating, Pigweed ([10]; 125 g ai/ha) | Plant response rating, Pigweed ([10]; 500 g ai/ha) | also measured
1 | O=C1NCC(/C=C/c2ccccc2F)C1C(=O)Nc1ccccc1F (stereo not drawn) [Compound 34] | 0 | 0 | 20 | 80 | 0 | 0 | 0 | 0 | 20 | 80 | 0 | 0 | 0 | 0 | 0 | 0 | 0 | 0 | 80 | 100 | Plant response rating, Sedge, Umbrella ([7]; 250 g ai/ha): 60; Plant response rating, Ryegrass, It. ([11]; 125 g ai/ha): 0; Plant response rating, Ryegrass, It. ([11]; 500 g ai/ha): 0; Plant response rating, Barnyardgrass ([12]; 125 g ai/ha): 0; Plant response rating, Barnyardgrass ([12]; 500 g ai/ha): 60; Plant response rating, Foxtail, Giant ([13]; 125 g ai/ha): 20; Plant response rating, Foxtail, Giant ([13]; 500 g ai/ha): 80; Plant response rating, Ducksalad ([14]; 250 g ai/ha): 80; Plant response rating, Barnyardgrass ([15]; 250 g ai/ha): 0; Plant response rating, Kochia (kochia (Kochia scoparia) [16]; 125 g ai/ha): 0; Plant response rating, Kochia (kochia (Kochia scoparia) [16]; 500 g ai/ha): 0; Plant response rating, Ragweed ([17]; 125 g ai/ha): 0; Plant response rating, Ragweed ([17]; 500 g ai/ha): 0; Plant response rating, Wheat ([18]; 125 g ai/ha): 0; Plant response rating, Wheat ([18]; 500 g ai/ha): 20; Plant response rating, Rice (rice (Oryza sativa); 250 g ai/ha): 15
2 | Cc1cccc(C#CC2CNC(=O)C2C(=O)Nc2ccccc2F)c1 (stereo not drawn) [Compound 21] | 0 | 0 | 0 | 20 | 0 | 0 | 0 | 0 | 20 | 80 | 0 | 0 | 0 | 20 | 0 | 0 | 0 | 0 | 0 | 0 | Plant response rating, Sedge, Umbrella ([7]; 250 g ai/ha): 0; Plant response rating, Ryegrass, It. ([11]; 125 g ai/ha): 0; Plant response rating, Ryegrass, It. ([11]; 500 g ai/ha): 0; Plant response rating, Barnyardgrass ([12]; 125 g ai/ha): 0; Plant response rating, Barnyardgrass ([12]; 500 g ai/ha): 50; Plant response rating, Foxtail, Giant ([13]; 125 g ai/ha): 0; Plant response rating, Foxtail, Giant ([13]; 500 g ai/ha): 0; Plant response rating, Ducksalad ([14]; 250 g ai/ha): 40; Plant response rating, Barnyardgrass ([15]; 250 g ai/ha): 0; Plant response rating, Kochia (kochia (Kochia scoparia) [16]; 125 g ai/ha): 0; Plant response rating, Kochia (kochia (Kochia scoparia) [16]; 500 g ai/ha): 0; Plant response rating, Ragweed ([17]; 125 g ai/ha): 0; Plant response rating, Ragweed ([17]; 500 g ai/ha): 0; Plant response rating, Wheat ([18]; 125 g ai/ha): 0; Plant response rating, Wheat ([18]; 500 g ai/ha): 0; Plant response rating, Rice (rice (Oryza sativa); 250 g ai/ha): 0
3 | O=C1NCC(Cc2cccc(F)c2F)C1C(=O)Nc1cccc(F)c1F (stereo not drawn) [Compound 8] | 0 | 0 | 0 | 0 | 0 | 0 | 0 | 0 | 0 | 0 | 0 | 0 | 0 | 0 | 0 | 0 | 0 | 0 | 0 | 0 | Plant response rating, Sedge, Umbrella ([7]; 500 g ai/ha): 0; Plant response rating, Ryegrass, It. ([11]; 125 g ai/ha): 0; Plant response rating, Ryegrass, It. ([11]; 500 g ai/ha): 0; Plant response rating, Barnyardgrass ([12]; 125 g ai/ha): 0; Plant response rating, Barnyardgrass ([12]; 500 g ai/ha): 0; Plant response rating, Foxtail, Giant ([13]; 125 g ai/ha): 0; Plant response rating, Foxtail, Giant ([13]; 500 g ai/ha): 50; Plant response rating, Ducksalad ([14]; 500 g ai/ha): 0; Plant response rating, Barnyardgrass ([15]; 500 g ai/ha): 0; Plant response rating, Kochia (kochia (Kochia scoparia) [16]; 125 g ai/ha): 0; Plant response rating, Kochia (kochia (Kochia scoparia) [16]; 500 g ai/ha): 0; Plant response rating, Ragweed ([17]; 125 g ai/ha): 0; Plant response rating, Ragweed ([17]; 500 g ai/ha): 0; Plant response rating, Wheat ([18]; 125 g ai/ha): 0; Plant response rating, Wheat ([18]; 500 g ai/ha): 0; Plant response rating, Rice (rice (Oryza sativa); 500 g ai/ha): 0
4 | O=C1NCC(Cc2ccccc2C(F)(F)F)C1C(=O)Nc1cccc(F)c1F (stereo not drawn) [Compound 9] | 0 | 0 | 0 | 0 | 0 | 0 | 0 | 30 | 0 | 50 | 0 | 0 | 0 | 0 | 0 | 0 | 0 | 0 | 0 | 0 | Plant response rating, Sedge, Umbrella ([7]; 500 g ai/ha): 0; Plant response rating, Ryegrass, It. ([11]; 125 g ai/ha): 0; Plant response rating, Ryegrass, It. ([11]; 500 g ai/ha): 0; Plant response rating, Barnyardgrass ([12]; 125 g ai/ha): 10; Plant response rating, Barnyardgrass ([12]; 500 g ai/ha): 60; Plant response rating, Foxtail, Giant ([13]; 125 g ai/ha): 0; Plant response rating, Foxtail, Giant ([13]; 500 g ai/ha): 50; Plant response rating, Ducksalad ([14]; 500 g ai/ha): 40; Plant response rating, Barnyardgrass ([15]; 500 g ai/ha): 0; Plant response rating, Kochia (kochia (Kochia scoparia) [16]; 125 g ai/ha): 0; Plant response rating, Kochia (kochia (Kochia scoparia) [16]; 500 g ai/ha): 50; Plant response rating, Ragweed ([17]; 125 g ai/ha): 0; Plant response rating, Ragweed ([17]; 500 g ai/ha): 30; Plant response rating, Wheat ([18]; 125 g ai/ha): 0; Plant response rating, Wheat ([18]; 500 g ai/ha): 0; Plant response rating, Rice (rice (Oryza sativa); 500 g ai/ha): 0
5 | O=C1NCC(/C=C/c2cccc(F)c2)C1C(=O)Nc1cccc(F)c1F (stereo not drawn) [Compound 30] | 0 | 0 | 40 | 80 | 0 | 0 | 0 | 0 | 50 | 90 | 0 | 0 | 0 | 0 | 0 | 20 | 0 | 20 | 0 | 0 | Plant response rating, Sedge, Umbrella ([7]; 250 g ai/ha): 0; Plant response rating, Ryegrass, It. ([11]; 125 g ai/ha): 0; Plant response rating, Ryegrass, It. ([11]; 500 g ai/ha): 0; Plant response rating, Barnyardgrass ([12]; 125 g ai/ha): 50; Plant response rating, Barnyardgrass ([12]; 500 g ai/ha): 80; Plant response rating, Foxtail, Giant ([13]; 125 g ai/ha): 60; Plant response rating, Foxtail, Giant ([13]; 500 g ai/ha): 90; Plant response rating, Ducksalad ([14]; 250 g ai/ha): 95; Plant response rating, Barnyardgrass ([15]; 250 g ai/ha): 70; Plant response rating, Kochia (kochia (Kochia scoparia) [16]; 125 g ai/ha): 70; Plant response rating, Kochia (kochia (Kochia scoparia) [16]; 500 g ai/ha): 80; Plant response rating, Ragweed ([17]; 125 g ai/ha): 0; Plant response rating, Ragweed ([17]; 500 g ai/ha): 0; Plant response rating, Wheat ([18]; 125 g ai/ha): 0; Plant response rating, Wheat ([18]; 500 g ai/ha): 20; Plant response rating, Rice (rice (Oryza sativa); 250 g ai/ha): 15
